Test results taken from patent publication US7371812B2, “Antiangiogenic peptides” (Children's Medical Center Corporation, priority 2003, dated 2008).

Legend:
[1] = system: Capillary endothelial cells (EC), isolated from bovine adrenal cortex; experiment: bFGF-stimulated capillary EC proliferation assay; assay type: cell-based
Description: Capillary endothelial cells (EC), isolated from bovine adrenal cortex, were a kind gift of Dr. Judah Folkman (Children's Hospital, Boston) and were maintained in DMEM (Gibco) supplemented with 10% calf serum (HyClone) and 3 ng/ml bFGF, and grown at 37° C. in 10% CO2. Capillary EC proliferation was measured as previously reported by us (Moses et al., 1990; Moses et al., 1992; O'Reilly et al., 1994; Moses et al., 1999) using a modification of the method of Connolly and coworkers (and verified by cell counting using a Coulter Counter) (Connolly et al., 1986). Briefly, capillary EC were plated on pre-gelatinized 96 well plates at a density of 2,000 cells per well in DMEM supplemented with 5% calf serum and allowed to attach for 24 hours. The next day, cells were treated with fresh media with or without 1 ng/ml bFGF and challenged with the test proteins at various concentrations. All samples were tested in duplicate. Control wells contained cell treated with media alone or media with bFGF. After 72 hours, the media was removed and the cells were lysed in buffer containing Triton X-100 and the phosphatase substrate p-nitrophenyl phosphate. After a two-hour incubation at 37° C., NaOH was added to each well to terminate the reaction and cell density was determined by calorimetric analysis using a SpectraMax 190 multiwell plate reader (Molecular Devices).

[2] = system: embryonic angiogenesis in the chick chorioallantoic membrane; experiment: Chick chorioallantoic membrane assay (CAM); assay type: in vivo; settings: methylcellulose disc, 48 hours
Description: The chick CAM assay was conducted as previously reported by us (Moses et al., 1990; Moses et al., 1992; O'Reilly et al., 1994; Moses et al., 1999; Fang et al., 2000) Briefly, three day old chick embryos were removed from their shells and incubated in plastic Petri dishes for three days. On embryonic day 6, samples and controls mixed into methylcellulose discs were applied to the surfaces of developing CAMs, above the dense subectodermal plexus. After 48 hours of incubation, the eggs were examined for vascular reactions under a dissecting scope (60×) and photographed. All determinations were made by 3 independent members of the laboratory, in a double-blinded fashion.

[3] = system: Capillary EC; experiment: Cell cycle analysis by flow cytometry; assay type: cell-based, bovine; settings: synchronized, bFGF-stimulated, 16 hours; for cells in G1 / cells in G2/M: IC50 dose of Loop 6 or equivalent dose of T2-Tail
Description: Capillary EC were plated at a density of 100,000 cells per plate unto pre-gelatinized 60 mm dishes in DMEM supplemented with 5% calf serum and allowed to attach overnight. The next day, the media was replaced with DMEM supplemented with 0.4% calf serum in order to synchronize the cells by serum starvation. After 36 hours, synchronized cells were stimulated with DMEM containing 5% calf serum plus 1 ng/ml bFGF, and then treated with an IC50 dose of Loop 6 or an equivalent dose of the T2-Tail peptide as control. After 16 hours, the cells were rinsed with PBS, trypsinized and collected by centrifugation. Pelleted cells were rinsed again with PBS and resuspended in 1 ml of 80% ethanol in PBS, and stored at −20° C. overnight. The next morning, cells were collected by centrifugation and resuspended in 500 μl of staining solution (0.1% sodium citrate, 100 μg/ml RNAse A, 0.1% Nonidet-P40, 50 μg/ml propidium iodide). After 30 minutes, DNA content of the cells and the percentages of cells in the various stages of the cell cycle were determined using a FACSVantage SE (Becton Dickinson, Franklin Lanes, N.J.). FACS analysis was performed at the Howard Hughes Institute of Medicine FACS Core Facility at Children's Hospital. All samples were tested in at least duplicate. Histograms of representative experiments for each test condition were created using WinMDI 2.8 (The Scripps Research Institute, La Jolla, Calif.).

[4] = system: Capillary EC; experiment: Apoptosis assay (TUNEL, DAPI); assay type: cell-based, bovine; settings: bFGF-stimulated, 6 hours; Loop 6 at IC50 dose, wortmannin 100 mM
Description: In situ detection of cell death was determined using terminal deoxynucleotidyl transferase dUTP nick-end labeling (TUNEL) following manufacturer's instructions (In Situ Cell Death Detection Kit, Roche Applied Science, Indianapolis, Ind.). Capillary EC were plated at a density of 10,000 cells per well on pre-gelatinized Lab-Tek Chamber Slides (Nalge Nunc, Naperville, Ill.) in DMEM supplemented with 5% calf serum and allowed to attach for 24 hours. The next day, cells were treated with fresh media supplemented with 1 ng/ml bFGF and challenged with an IC50 dose of Loop 6 or […] wortmannin, a dose previously reported to induce apoptosis of capillary E (Flusberg et al., 2001). Cells stimulated with bFGF alone were also used as controls. All samples were tested in duplicate. After 6 hours, the cells were rinsed with PBS and then fixed in 4% paraformaldehyde for 1 hour at room temperature. Fixed cells were again rinsed with PBS and permeabilised with 0.1% Triton X-100 in 0.1% sodium citrate on ice for 2 minutes. After two more rinses in PBS, the cells were exposed to TUNEL reaction mixture and incubated at 37° C. […] Apoptotic nuclei were detected using a Nikon Eclipse TE300 microscope (Nikon Instruments, Melville, N.Y.).

[5] = system: activated type I collagenase; experiment: 14C-Collagen Film Assay of MMP-inhibitory activity; assay type: biochemical; settings: T2C and EAT2N up to approximately 100-fold the IC50 of T2N
Description: MMP-inhibitory activity was assessed using a quantitative ^14C-Collagen Film Assay, as previously described by us (Moses et al., 1990). Briefly, ^14C-labeled collagen was added to 96 well plates and allowed to polymerize. To determine inhibitory activity, wells were treated with a known amount of activated type I collagenase plus test sample or with collagenase alone, and the plates incubated at 37° C. for 2.5 hours to allow for release of ^14C by the enzyme. Supernantants were then analyzed in a Wallac Scintillation Counter, and percent inhibition of collagenolytic activity was calculated. An IC50 was defined as the amount of protein necessary to inhibit the proteolytic activity of collagenase by 50%.

[6] = system: vascular smooth muscle cells; experiment: Vascular smooth muscle cell proliferation (data not shown); assay type: cell-based
[7] = system: Cyclin D1, Cyclin E, Cyclin A and p27 in capillary EC lysates; experiment: Immunoblot analyses of cell cycle associated proteins; assay type: cell-based, bovine; settings: IC50 dose, 16 hours, versus bFGF-stimulated controls
Description: Western analyses of capillary EC lysates were performed as previously described by us (Moses et al., 1999; Yan et al., 2001). Capillary EC were plated, synchronized and treated with an IC50 dose of Loop 6 as described above for cell cycle analysis. After 16 hours, cells exposed to bFGF alone or bFGF and Loop 6 were rinsed in PBS and lysed directly in the culture dish by addition of 500 μl of lysis buffer (1% SDS in 10 mM Tris-Hcl, pH 7.4). Collected lysates were boiled for 5 minutes, mixed by vortexing and then placed on ice. Samples were repeatedly passed through a 22-gauge syringe needle in order to shear the DNA. The samples were then centrifuged, and the supernatant collected. Protein concentration of the lysates was determined using the MicroBCA method (Pierce, Rockford, Ill.). Equal amounts of protein were loaded unto 12% SDS-PAGE gels under reducing conditions, resolved by electrophoresis and subsequently transferred to nitrocellulose using a TransBlot apparatus (BioRad). […] Labeled proteins were detected using Supersignal West Pico Chemiluminescence Substrate (Pierce).

[8] = system: Capillary EC; experiment: FGF competition assay; assay type: cell-based, bovine; settings: IC50 dose of Loop 6, increasing concentrations of bFGF
Description: To further map the anti-proliferative activity of TIMP-2 within T2C, three peptides corresponding to various smaller domains of T2C were synthesized, purified and tested for their ability to inhibit bFGF-stimulated capillary EC proliferation in vitro. These domains and are depicted in FIG. 6A. […] Given that Loop 6 inhibits bFGF-driven endothelial cell proliferation, we asked whether Loop 6 could directly compete with bFGF.

[9] = system: bFGF-driven corneal neovascularization; experiment: Mouse corneal pocket assay; assay type: in vivo
Description: In vivo inhibition of angiogenesis was also tested using the mouse corneal pocket assay as previously described (O'Reilly et al., 1994; Moses et al., 1999). […] Each animal carried a pellet containing the test sample plus bFGF in one eye, and a control bFGF pellet in the contralateral eye. After six days, angiogenesis was evaluated using a slit lamp microscope, and each eye was photographed. The area of neovascularization for each cornea was calculated from the length of the vessels (VL) invading the cornea as well as the clock hours (CH) covered as described by the formula VL×CH×0.0628.

| Molecule | effect on bFGF-stimulated capillary EC proliferation ([1]; 1 ng/ml bFGF, 72 hours) | effect on neovascularization in the CAM [2] | cells in G1 [3] [%] | cells in G2/M [3] [%] | inhibition of MMP activity [5] | also measured |
| --- | --- | --- | --- | --- | --- | --- |
| Loop 5: 10 amino acid peptide corresponding to Loop 5 of TIMP-2, sequence TRCPMIPCYI (SEQ ID NO: 2) [reference compound] | stimulated the proliferation of capillary EC | Neither Loop 5 nor the T2-Tail peptides had any significant effect on neovascularization |  |  |  |  |
| Loop 6: 24 amino acid peptide corresponding to Loop 6 of TIMP-2, sequence ECLWMDWVTEKNINGHQAKFFACI (SEQ ID NO: 1) | significantly inhibited capillary EC proliferation | resulted in avascular zones at doses comparable to those tested for T2C | 45.6 | 9.53 | neither T2C nor Loop 6 inhibit MMP activity | number of cells in S-phase ([3]; IC50 dose): did not change significantly; induction of apoptosis (apoptotic nuclei) [4]: not an inducer of apoptosis; proliferation of vascular smooth muscle cells [6]: did not inhibit the proliferation of vascular smooth muscle cells; level of p27 [7]: significantly increased; levels of Cyclins D1, E or A [7]: No significant differences; competition with bFGF [8]: not abrogated by increasing doses of bFGF; suppression of bFGF-stimulated neovascularization ([9]; 3 μg/eye, versus contralateral control eyes): ~80% |
| T2-Tail: 19 amino acid peptide corresponding to the carboxy-terminal tail of TIMP-2, sequence AWYRGAAPPKQEFLDIEDP (SEQ ID NO: 3) [reference compound] | had no effect | Neither Loop 5 nor the T2-Tail peptides had any significant effect on neovascularization | 27.8 | 34.6 |  |  |
| VIRAK: control peptide of sequence VIRAK (SEQ ID NO: 4), conserved sequence in the N-terminal domain of all TIMPs [reference compound] | no inhibition of capillary EC proliferation |  |  |  |  |  |
| T2C: recombinant His-tagged TIMP-2 domain composed of the three C-terminal disulfide-bonded loops (~8.5 kD), expressed in Pichia pastoris (protein, disulfide (positions not given here); also: His tag, disulfide pairing not given here, recombinant His-tagged TIMP-2 domain composed of the three C-terminal disulfide-bonded loops (~8.5 kD), expressed in Pichia pastoris) CKITRCPMIPCYISSPDECLWMDWVTEKNINGHQAKFFACIKRSDGSCAWYRGAAPPKQEFLDIEDP |  | decrease in neovascularization |  |  | No significant inhibition of MMP activity | cytotoxicity to capillary EC [1]: no evidence of cytotoxicity; IC50 ([1]; 1 ng/ml bFGF, 72 hours, read-out: IC50 of inhibition of capillary EC proliferation): ~140 nM; lowest dose producing avascular zones [2]: 112 pmol per egg; reduction of bFGF-driven corneal neovascularization ([9]; 5 μg/eye, versus contralateral control eye with only bFGF, six days): 87% |
